How the values were obtained:
5-HT7 = 5-HT7 (Homo sapiens, UniProt P34969); assay: PDSP screening affinity 5-HT7; format: binding
Male C57BL/6J mice = assay: Mouse head twitch response; settings: for max counts: HTR counts; for ED50: Mus musculus, sc, read-out: ED50 mg/kg (95% CI), mouse head twitch; for magnitude of peak effect × vehicle / maximally effective dose: mouse head twitch
h5-HT2C = target: T1, h5-HT2C (Homo sapiens, UniProt P28335); assay: Ca2+ mobilization assay; format: cell-based; settings: for Emax: HEK293, read-out: h5HT2C Emax; for EC50: h5HT2C EC50, Ca2+ mobilization
T1 sequence (P28335 33-458): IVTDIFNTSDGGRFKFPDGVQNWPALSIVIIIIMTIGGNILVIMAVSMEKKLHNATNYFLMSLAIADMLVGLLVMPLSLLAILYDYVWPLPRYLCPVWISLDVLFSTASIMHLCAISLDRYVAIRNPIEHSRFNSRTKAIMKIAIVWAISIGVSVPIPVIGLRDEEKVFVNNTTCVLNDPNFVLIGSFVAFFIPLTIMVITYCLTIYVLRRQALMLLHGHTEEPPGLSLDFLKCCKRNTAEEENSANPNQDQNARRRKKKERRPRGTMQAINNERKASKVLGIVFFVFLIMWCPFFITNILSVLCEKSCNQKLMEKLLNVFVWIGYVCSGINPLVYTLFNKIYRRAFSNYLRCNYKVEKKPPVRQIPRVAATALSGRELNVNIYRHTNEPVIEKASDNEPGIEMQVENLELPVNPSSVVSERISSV

5-HT2B = 5-HT2B (Homo sapiens, UniProt P41595); assay: PDSP screening affinity 5-HT2B; format: binding
5-HT6 = 5-HT6 (Homo sapiens, UniProt P50406); assay: PDSP screening affinity 5-HT6; format: binding
h5-HT2B = h5-HT2B (Homo sapiens, UniProt P41595); assay: Ca2+ mobilization assay; format: cell-based; settings: for Emax: HEK293, read-out: h5-HT2B Emax
human 5-HT2C receptor [1] = target: T2, human 5-HT2C receptor (Homo sapiens, UniProt P28335); assay: h5-HT2C affinity, antagonist radioligand [3H]mesulergine; format: binding
T2 sequence (P28335 33-458): T1 sequence (P28335 33-458)

human 5-HT2C receptor [2] = target: T2, human 5-HT2C receptor; assay: h5-HT2C affinity, agonist radioligand [125I]DOI; format: binding
r5-HT2A = r5-HT2A (Rattus norvegicus, UniProt P14842); assay: Ca2+ mobilization assay; format: cell-based; settings: for EC50: r5-HT2A EC50, Ca2+ mobilization; for Emax: read-out: r5-HT2A Emax, percentage of the maximum response to 5-HT
5-HT2A receptor [3] = target: T3, 5-HT2A receptor (Homo sapiens, UniProt P28223); assay: h5-HT2A affinity, antagonist radioligand [3H]ketanserin; format: binding
5-HT1B = 5-HT1B (Homo sapiens, UniProt P28222); assay: PDSP screening affinity 5-HT1B; format: binding; settings: 5-HT1B affinity
h5-HT2A = h5-HT2A (Homo sapiens, UniProt P28223); assay: Ca2+ mobilization assay; format: cell-based; settings: for Emax: HEK293, read-out: h5-HT2A Emax, percentage of the maximum response to 5-HT
5-HT3 = target: T4, 5-HT3 (Homo sapiens, UniProt P46098); assay: PDSP screening affinity 5-HT3; format: binding
T4 sequence (P46098 24-478): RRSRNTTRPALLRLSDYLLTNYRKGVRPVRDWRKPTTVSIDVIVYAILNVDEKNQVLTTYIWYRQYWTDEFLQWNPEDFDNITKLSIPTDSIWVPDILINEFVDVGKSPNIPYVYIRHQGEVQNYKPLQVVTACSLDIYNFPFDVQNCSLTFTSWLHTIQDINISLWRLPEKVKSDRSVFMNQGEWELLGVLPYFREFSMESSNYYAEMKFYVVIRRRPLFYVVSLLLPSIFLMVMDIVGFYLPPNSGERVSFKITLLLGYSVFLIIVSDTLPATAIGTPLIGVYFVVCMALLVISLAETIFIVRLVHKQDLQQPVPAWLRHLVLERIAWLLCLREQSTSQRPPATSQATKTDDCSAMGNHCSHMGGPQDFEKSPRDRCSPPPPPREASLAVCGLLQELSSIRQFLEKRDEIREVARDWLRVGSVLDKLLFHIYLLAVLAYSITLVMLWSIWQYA

r5-HT2C = target: T5, r5-HT2C (Rattus norvegicus, UniProt P08909); assay: Ca2+ mobilization assay; format: cell-based; settings: for Emax: read-out: r5-HT2C Emax
T5 sequence (P08909 33-460): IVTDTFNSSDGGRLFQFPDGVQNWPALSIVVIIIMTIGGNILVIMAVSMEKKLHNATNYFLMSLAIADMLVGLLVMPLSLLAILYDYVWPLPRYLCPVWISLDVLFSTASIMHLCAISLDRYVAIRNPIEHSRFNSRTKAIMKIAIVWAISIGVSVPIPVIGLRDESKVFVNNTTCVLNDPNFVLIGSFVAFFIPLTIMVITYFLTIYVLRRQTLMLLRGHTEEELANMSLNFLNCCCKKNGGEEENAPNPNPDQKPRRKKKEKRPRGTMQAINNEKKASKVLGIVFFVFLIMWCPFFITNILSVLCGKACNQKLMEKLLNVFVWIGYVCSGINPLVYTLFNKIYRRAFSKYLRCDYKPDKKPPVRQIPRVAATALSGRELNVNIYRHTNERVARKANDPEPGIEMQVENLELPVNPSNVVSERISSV

5-ht1e = 5-ht1e (Homo sapiens, UniProt P28566); assay: PDSP screening affinity 5-ht1e; format: binding
5-HT1A = target: T6, 5-HT1A (Homo sapiens, UniProt P08908); assay: PDSP screening affinity 5-HT1A; format: binding; settings: 5-HT1A affinity
T6 sequence (P08908 1-422): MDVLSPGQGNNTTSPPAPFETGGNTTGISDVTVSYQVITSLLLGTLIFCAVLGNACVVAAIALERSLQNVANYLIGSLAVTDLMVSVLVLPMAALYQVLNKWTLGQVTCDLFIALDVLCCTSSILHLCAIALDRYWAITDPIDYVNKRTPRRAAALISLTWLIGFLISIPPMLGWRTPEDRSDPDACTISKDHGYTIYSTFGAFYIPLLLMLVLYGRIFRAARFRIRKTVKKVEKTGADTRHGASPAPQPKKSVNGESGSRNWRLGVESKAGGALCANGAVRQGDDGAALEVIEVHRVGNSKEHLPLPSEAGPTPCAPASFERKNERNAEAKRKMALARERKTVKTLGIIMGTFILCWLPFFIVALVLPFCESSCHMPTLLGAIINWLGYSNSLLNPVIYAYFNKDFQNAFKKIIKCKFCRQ

5-ht5a = 5-ht5a (Homo sapiens, UniProt P47898); assay: PDSP screening affinity 5-ht5a; format: binding; settings: 5-ht5a affinity
5-HT1D = 5-HT1D (Homo sapiens, UniProt P28221); assay: PDSP screening affinity 5-HT1D; format: binding
5-HT2A receptor [4] = target: T3, 5-HT2A receptor; assay: h5-HT2A affinity, agonist radioligand [125I]DOI; format: binding
[5] = r5-HT2C EC50, Ca2+ mobilization
[6] = h5-HT2B EC50, Ca2+ mobilization

h5-HT2A, sequence (P28223 whole entry): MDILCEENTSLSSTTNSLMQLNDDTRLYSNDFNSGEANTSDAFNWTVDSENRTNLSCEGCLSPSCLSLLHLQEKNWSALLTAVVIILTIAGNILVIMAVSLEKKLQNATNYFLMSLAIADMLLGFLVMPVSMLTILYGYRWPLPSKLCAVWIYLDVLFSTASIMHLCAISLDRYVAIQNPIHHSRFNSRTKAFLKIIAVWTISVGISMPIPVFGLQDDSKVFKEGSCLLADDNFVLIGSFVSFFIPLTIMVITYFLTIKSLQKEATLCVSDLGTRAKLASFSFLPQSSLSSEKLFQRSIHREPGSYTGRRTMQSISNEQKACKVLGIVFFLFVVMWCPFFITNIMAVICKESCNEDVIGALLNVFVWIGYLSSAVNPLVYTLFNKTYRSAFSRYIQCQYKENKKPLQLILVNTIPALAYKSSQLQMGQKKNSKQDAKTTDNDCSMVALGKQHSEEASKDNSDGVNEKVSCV
T3 sequence (P28223 whole entry): as above
r5-HT2A, sequence (P14842 whole entry): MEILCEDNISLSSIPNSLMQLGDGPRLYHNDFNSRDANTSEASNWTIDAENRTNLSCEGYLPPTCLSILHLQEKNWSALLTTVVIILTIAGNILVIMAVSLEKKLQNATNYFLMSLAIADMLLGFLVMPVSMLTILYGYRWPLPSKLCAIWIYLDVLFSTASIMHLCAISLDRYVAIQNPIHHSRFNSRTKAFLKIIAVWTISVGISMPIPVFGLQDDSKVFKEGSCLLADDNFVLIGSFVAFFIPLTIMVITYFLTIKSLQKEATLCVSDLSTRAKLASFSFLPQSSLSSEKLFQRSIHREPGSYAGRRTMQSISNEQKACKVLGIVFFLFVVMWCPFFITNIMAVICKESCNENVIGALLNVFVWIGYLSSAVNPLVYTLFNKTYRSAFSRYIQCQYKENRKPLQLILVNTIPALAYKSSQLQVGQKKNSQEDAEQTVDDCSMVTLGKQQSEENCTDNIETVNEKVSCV
5-ht5a, sequence (P47898 whole entry): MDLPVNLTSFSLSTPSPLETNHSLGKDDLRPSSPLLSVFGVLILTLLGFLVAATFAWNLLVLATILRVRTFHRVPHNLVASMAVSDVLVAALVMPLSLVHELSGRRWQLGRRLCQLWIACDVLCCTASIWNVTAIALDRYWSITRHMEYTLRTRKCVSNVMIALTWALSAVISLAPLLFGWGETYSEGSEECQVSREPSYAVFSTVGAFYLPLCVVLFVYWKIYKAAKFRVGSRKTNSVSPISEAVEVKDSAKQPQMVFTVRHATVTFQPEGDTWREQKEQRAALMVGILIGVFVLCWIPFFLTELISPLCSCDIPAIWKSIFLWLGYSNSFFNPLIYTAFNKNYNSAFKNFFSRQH
h5-HT2B, sequence (P41595 whole entry): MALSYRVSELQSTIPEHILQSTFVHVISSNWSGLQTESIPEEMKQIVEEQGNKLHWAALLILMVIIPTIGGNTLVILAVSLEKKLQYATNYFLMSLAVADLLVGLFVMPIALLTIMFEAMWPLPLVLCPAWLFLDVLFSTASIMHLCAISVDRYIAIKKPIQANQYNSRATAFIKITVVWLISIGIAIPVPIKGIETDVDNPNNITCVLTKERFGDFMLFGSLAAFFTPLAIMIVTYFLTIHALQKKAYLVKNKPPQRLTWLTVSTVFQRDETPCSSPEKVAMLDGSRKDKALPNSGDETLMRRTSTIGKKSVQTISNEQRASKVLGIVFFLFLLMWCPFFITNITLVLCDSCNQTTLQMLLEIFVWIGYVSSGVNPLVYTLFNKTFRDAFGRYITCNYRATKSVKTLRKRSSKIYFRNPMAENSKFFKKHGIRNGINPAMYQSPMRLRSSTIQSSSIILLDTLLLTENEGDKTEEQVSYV
5-HT2B, sequence (P41595 whole entry): as above
5-HT1D, sequence (P28221 whole entry): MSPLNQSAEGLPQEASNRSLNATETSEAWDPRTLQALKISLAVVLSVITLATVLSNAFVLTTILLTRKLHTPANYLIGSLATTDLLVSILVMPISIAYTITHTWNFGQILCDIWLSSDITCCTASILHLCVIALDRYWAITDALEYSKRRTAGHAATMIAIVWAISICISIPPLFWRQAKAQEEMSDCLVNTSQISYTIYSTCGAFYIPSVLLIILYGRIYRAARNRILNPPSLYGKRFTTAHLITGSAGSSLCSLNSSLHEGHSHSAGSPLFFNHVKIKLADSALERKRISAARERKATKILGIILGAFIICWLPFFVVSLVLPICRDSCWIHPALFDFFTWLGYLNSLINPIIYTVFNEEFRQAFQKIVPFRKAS
5-ht1e, sequence (P28566 whole entry): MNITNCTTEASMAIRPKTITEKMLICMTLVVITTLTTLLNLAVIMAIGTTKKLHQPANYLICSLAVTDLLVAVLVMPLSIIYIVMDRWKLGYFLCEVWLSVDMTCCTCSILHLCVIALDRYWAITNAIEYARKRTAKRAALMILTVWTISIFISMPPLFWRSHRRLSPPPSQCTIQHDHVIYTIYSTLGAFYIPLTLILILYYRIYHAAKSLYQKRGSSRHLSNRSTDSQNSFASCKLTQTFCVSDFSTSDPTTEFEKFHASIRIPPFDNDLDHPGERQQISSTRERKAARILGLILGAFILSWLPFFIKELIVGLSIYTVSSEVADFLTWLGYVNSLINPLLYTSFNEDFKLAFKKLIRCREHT
5-HT1B, sequence (P28222 whole entry): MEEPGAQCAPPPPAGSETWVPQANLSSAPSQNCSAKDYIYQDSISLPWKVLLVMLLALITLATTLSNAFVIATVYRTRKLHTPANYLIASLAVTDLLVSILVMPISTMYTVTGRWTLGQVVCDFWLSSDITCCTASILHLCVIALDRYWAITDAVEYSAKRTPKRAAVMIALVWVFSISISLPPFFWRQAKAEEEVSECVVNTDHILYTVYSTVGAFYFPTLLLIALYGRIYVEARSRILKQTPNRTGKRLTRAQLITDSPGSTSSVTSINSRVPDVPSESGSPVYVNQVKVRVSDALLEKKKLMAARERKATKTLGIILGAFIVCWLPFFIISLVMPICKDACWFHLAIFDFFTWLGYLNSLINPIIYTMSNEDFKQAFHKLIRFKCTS
5-HT6, sequence (P50406 whole entry): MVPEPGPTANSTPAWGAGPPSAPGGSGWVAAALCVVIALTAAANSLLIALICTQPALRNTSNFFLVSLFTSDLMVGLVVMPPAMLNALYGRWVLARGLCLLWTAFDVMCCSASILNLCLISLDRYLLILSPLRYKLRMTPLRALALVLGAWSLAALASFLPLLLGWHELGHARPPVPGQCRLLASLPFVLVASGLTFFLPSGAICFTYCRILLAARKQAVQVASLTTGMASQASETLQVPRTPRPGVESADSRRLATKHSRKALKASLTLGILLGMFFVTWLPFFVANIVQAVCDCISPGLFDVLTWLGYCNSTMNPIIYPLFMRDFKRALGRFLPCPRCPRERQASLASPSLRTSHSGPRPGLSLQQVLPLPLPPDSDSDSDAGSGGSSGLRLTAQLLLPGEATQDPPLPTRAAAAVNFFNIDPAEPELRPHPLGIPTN
5-HT7, sequence (P34969 whole entry): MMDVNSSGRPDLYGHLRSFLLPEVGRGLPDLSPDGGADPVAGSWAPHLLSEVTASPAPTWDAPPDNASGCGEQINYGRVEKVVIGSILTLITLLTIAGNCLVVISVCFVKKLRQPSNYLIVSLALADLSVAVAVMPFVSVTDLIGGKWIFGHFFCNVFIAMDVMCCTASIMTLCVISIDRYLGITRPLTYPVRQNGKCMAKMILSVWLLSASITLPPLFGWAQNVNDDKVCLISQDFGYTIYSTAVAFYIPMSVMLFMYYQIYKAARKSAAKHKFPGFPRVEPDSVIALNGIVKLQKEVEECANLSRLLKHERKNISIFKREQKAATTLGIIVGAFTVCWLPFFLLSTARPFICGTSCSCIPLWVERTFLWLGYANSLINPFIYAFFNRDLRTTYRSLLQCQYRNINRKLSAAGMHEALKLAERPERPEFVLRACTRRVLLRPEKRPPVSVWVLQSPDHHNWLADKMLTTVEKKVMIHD

| Compound | Ki (5-HT7; 5-HT7 affinity) [nM] | Emax (h5-HT2C) [%] | EC50 (h5-HT2C) [nM] | Ki (5-HT2B; 5-HT2B pKi ± SEM) [nM] | Ki (5-HT6; 5-HT6 affinity) [nM] | Emax (h5-HT2B) [%] | Ki (human 5-HT2C receptor [2]) [nM] | EC50 (r5-HT2A) [nM] | Emax (r5-HT2A) [%] | Ki (5-HT2A receptor [3]) [nM] | Ki (5-HT1B) [nM] | EC50 (h5-HT2A) [nM] | Emax (h5-HT2A) [%] | Ki (5-HT3) [nM] | EC50 (r5-HT2C; [5]) [nM] | Emax (r5-HT2C) [%] | Ki (5-ht1e) [nM] | Ki (5-HT1A) [nM] | Ki (5-ht5a) [nM] | Ki (5-HT1D) [nM] | other results |
| --- | --- | --- | --- | --- | --- | --- | --- | --- | --- | --- | --- | --- | --- | --- | --- | --- | --- | --- | --- | --- | --- |
| COc1ccc2[nH]cc(CCNCc3cccc(F)c3)c2c1 [Compound 5g, N-(3-Fluorobenzyl)-2-(5-methoxy-1H-indol-3-yl)ethan-1-amine] | 242 | 83 ± 5 | 192 | 21.9 | 59 | 37 ± 1 | 8.71 | 80 | 69.1 ± 1.3 | 21.4 | 2670 | 10 | 89.3 ± 1.1 | > 10000 | 46 | 100 ± 3 | > 10000 | 295 | 2450 | 319 | max counts (Male C57BL/6J mice; SC): 14.5; ED50 (Male C57BL/6J mice): 3.33 mg/kg; magnitude of peak effect × vehicle (Male C57BL/6J mice; SC): 7.3 × vehicle; maximally effective dose (Male C57BL/6J mice; SC): 10 mg/kg; EC50 (h5-HT2B; h5-HT2B pEC50 ± SEM, Ca2+ mobilization, NA = not active, Emax ≤ 15%): 38 nM; Ki (human 5-HT2C receptor [1]): 47.9 nM |
| COc1ccc2[nH]cc(CCNCc3cccc(Br)c3)c2c1 [Compound 5e, N-(3-Bromobenzyl)-2-(5-methoxy-1H-indol-3-yl)ethan-1-amine] | 116 | 64 ± 8 | 321 | 3.55 | 45 | 20 ± 2 | 5.62 | 130 | 65.5 ± 0.8 | 6.76 | 6430 | 13 | 73.8 ± 1.1 | > 10000 | 422 | 112 ± 3 | > 10000 | 155 | 612 | 381 | Ki (5-HT2A receptor [4]): 1.48 nM; Ki (5-HT7; 5-HT7 pKi ± SEM): 117 nM; max counts (Male C57BL/6J mice; SC): 14.2; ED50 (Male C57BL/6J mice): 5.18 mg/kg; activity in the HTR assay (active / inactive) (Male C57BL/6J mice; SC, doses up to 30 mg/kg): active; magnitude of peak effect × vehicle (Male C57BL/6J mice; SC): 4.4 × vehicle; maximally effective dose (Male C57BL/6J mice; SC): 30 mg/kg; Ki (5-HT2B; 5-HT2B affinity): 3.6 nM; Ki (5-HT6; 5-HT6 pKi ± SEM): 45.7 nM; EC50 (h5-HT2B; [6]): 29 nM; EC50 (r5-HT2C; r5-HT2C pEC50 ± SEM, Ca2+ mobilization): 417 nM |
| COc1ccc2[nH]cc(CCNCc3cccc(C(F)(F)F)c3)c2c1 [Compound 5k, N-(3-Trifluoromethylbenzyl)-2-(5-methoxy-1H-indol-3-yl)ethan-1-amine] | 262 | 75 ± 5 | 512 | 27.5 | 87 | 51 ± 2 | 14.8 | 770 | 69.6 ± 1.4 | 28.2 | > 10000 | 87 | 75.5 ± 1.2 | > 10000 | 162 | 104 ± 2 | > 10000 | 240 | 3090 | 278 | Ki (5-HT2A receptor [4]): 2.95 nM; EC50 (h5-HT2B; [6]): 107 nM; Ki (human 5-HT2C receptor [1]): 102 nM |
| COc1ccc2[nH]cc(CCNCc3cccc(SC)c3)c2c1 [Compound 5l, N-(3-Methylthiobenzyl)-2-(5-methoxy-1H-indol-3-yl)ethan-1-amine] | 136 | 60 ± 4 | 283 | 4.07 | 9.7 | – | 2.09 | 120 | 32 ± 0.7 | 8.91 | > 10000 | 32 | 46.9 ± 0.8 | > 10000 | 205 | 101 ± 2 | > 10000 | 127 | 841 | 659 | Ki (5-HT2A receptor [4]): 3.09 nM; Ki (human 5-HT2C receptor [1]): 13.2 nM |
